In ChEMBL document CHEMBL1143433, “Interaction of kendomycin and semi-synthetic analogues with the anti-apoptotic protein Bcl-xl” (Bioorg Med Chem Lett, 2008):
≈ marks a conversion by molar mass, not a printed value.

Experiments:
A549 = assay: Cytotoxicity against human A549 cells; type: functional, cell-based
Bcl-2-like protein 1 [1] = target: T1, Bcl-2-like protein 1 (Homo sapiens, UniProt Q07817); assay: Inhibition of interaction between Bcl-xl and Bak by surface plasmon resonance assay
Bcl-2-like protein 1 [2] = target: T1, Bcl-2-like protein 1; assay: Inhibition of interaction between GST-tagged Bcl-xl and Bak by fluorescence polarization assay
Bcl-2-like protein 1 [3] = target: T1, Bcl-2-like protein 1; assay: Inhibition of interaction between GST-tagged Bcl-xl and Bak by surface plasmon resonance assay
Staphylococcus aureus = assay: Antibacterial activity against methicillin-resistant Staphylococcus aureus STA MU50; type: functional
HepG2 = assay: Cytotoxicity against human HepG2 cells; type: functional
[4] = Chemical stability assessed as half life by HPLC; type: physicochemical

T1 sequence (Q07817 whole entry): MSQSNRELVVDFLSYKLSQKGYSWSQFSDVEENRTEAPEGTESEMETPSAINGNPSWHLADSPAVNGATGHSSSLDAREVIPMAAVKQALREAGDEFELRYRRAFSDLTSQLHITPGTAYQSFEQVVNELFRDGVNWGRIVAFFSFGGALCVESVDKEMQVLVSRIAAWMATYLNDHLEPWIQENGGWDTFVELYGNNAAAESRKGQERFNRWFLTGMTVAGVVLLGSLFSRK

Which IC50 (A549) does the source give for `CC1=C(O)C(=O)C2=C(C1=O)C(O)C(=O)[C@@H](C)C[C@H](C)C/C(C)=C/[C@@H](C)CC[C@H]1O[C@@H]2[C@H](C)[C@@H](O)[C@H]1C` (some centres undefined) here?
The IC50 was 25 µM.

What about the Kd (Bcl-2-like protein 1 [1]) of the same compound?
Its Kd is “Not Active”.

And the Emax (Bcl-2-like protein 1 [2])?
Its Emax is 35%.

And the IC50 (Bcl-2-like protein 1 [2]; read-out: IC50)?
Its IC50 is 230 µM.

And the Kd (Bcl-2-like protein 1 [3])?
Its Kd is 10800 µM.

Which results are given for `CC1=C2O[C@]3(O)C=C2C(=C(O)C1=O)[C@@H]1O[C@H](CC[C@H](C)/C=C(\C)C[C@@H](C)C[C@@H]3C)[C@H](C)[C@H](O)[C@H]1C` [KENDOMYCIN]?
IC50 (A549): 16 µM; Kd (Bcl-2-like protein 1 [1]; read-out: Kd): 1830 µM; Emax (Bcl-2-like protein 1 [2]): 70%; IC50 (Bcl-2-like protein 1 [2]; read-out: IC50): 12.3 µM; Kd (Bcl-2-like protein 1 [3]): 528 µM; MIC (Staphylococcus aureus): 3.9 µM (≈ 1.9 µg/mL); GI50 (HepG2): < 0.1 µM; half-life [4]: < 2 h

Which IC50 (A549) does the source give for `CO[C@@]12C=C3C(=C(C)C(=O)C(O)=C3[C@@H]3O[C@H](CC[C@H](C)/C=C(\C)C[C@@H](C)C[C@@H]1C)[C@H](C)[C@H](O)[C@H]3C)O2` here?
The IC50 was 9 µM.

What about the IC50 (Bcl-2-like protein 1 [2]) of the same compound?
The IC50 was “Not Active”.

With `Cc1cc2c(C(C)C)c(O)c(O)c(C=O)c2c(O)c1-c1c(C)cc2c(C(C)C)c(O)c(O)c(C=O)c2c1O` [GOSSYPOL] as the compound, how does the Kd (Bcl-2-like protein 1 [1]; read-out: Kd) read?
Its Kd is 338 µM.

What about the Kd (Bcl-2-like protein 1 [3]) of the same compound?
The Kd was 1.71 µM.

With `CC1=C2O[C@]34OC5(CCN(C)CC5)O[C@@H]3C2=C(C(=O)C1=O)[C@@H]1O[C@H](CC[C@H](C)/C=C(\C)C[C@@H](C)C[C@@H]4C)[C@H](C)[C@H](O)[C@H]1C` as the compound, how does the IC50 (A549) read?
Its IC50 is 14 µM.

And the Kd (Bcl-2-like protein 1 [1]; read-out: Kd)?
The Kd was 399 µM.

And the Emax (Bcl-2-like protein 1 [2])?
The Emax was 66%.

And the IC50 (Bcl-2-like protein 1 [2]; read-out: IC50)?
Its IC50 is 5 µM.

What about the Kd (Bcl-2-like protein 1 [3]) of the same compound?
The Kd was 377 µM.

And the half-life [4]?
Its half-life is < 23 h.

Which IC50 (A549) does the source give for `CC1=C2O[C@]34OC(C)(C)O[C@@H]3C2=C(C(=O)C1=O)[C@@H]1O[C@H](CC[C@H](C)/C=C(\C)C[C@@H](C)C[C@@H]4C)[C@H](C)[C@H](O)[C@H]1C` here?
The IC50 was 14 µM.

And the Emax (Bcl-2-like protein 1 [2])?
Its Emax is 22%.

And the IC50 (Bcl-2-like protein 1 [2]; read-out: IC50)?
The IC50 was 9.5 µM.

What about the half-life [4] of the same compound?
Its half-life is < 39 h.

For `CC1=C2O[C@]34OC5(CCCCC5)O[C@@H]3C2=C(C(=O)C1=O)[C@@H]1O[C@H](CC[C@H](C)/C=C(\C)C[C@@H](C)C[C@@H]4C)[C@H](C)[C@H](O)[C@H]1C`, which IC50 (A549) is on record?
The IC50 was 24 µM.

And the IC50 (Bcl-2-like protein 1 [2])?
Its IC50 is “Not Active”.
